Measurements: US20230355599A1, “BIOMARKERS FOR CBL, AND COMPOSITIONS AND METHODS FOR THEIR USE” (NURIX THERAPEUTICS, INC., priority 2022, published 2023)

Experiments:
phosphorylated HS1 [1] = assay: Phosphorylated HS1 in cynomolgus macaque CD8+ T cells from whole blood in vitro (flow cytometry); type: cell-based; conditions: Macaca fascicularis, T-cell, whole blood from six cynomolgus macaques, 2 hrs 37° C., 2 μg/mL anti-CD3 & anti-CD28 + crosslinker 60 minutes, read-out: Average mean EC50±standard deviation, phosphorylated HS1
Description: To assess these candidate clinical proximal biomarkers of Cbl-b inhibition on T cells, pharmacodynamic analysis was performed. Whole blood was obtained from cynomolgus macaque donors, then incubated with increasing concentrations of Compound 23. The response to Cbl-b inhibition on phosphorylated HS1, ZAP70 and PLCγ2 was measured in CD8^+ T cells using flow cytometry. This technique is highly quantitative and can measure multiple phosphorylation markers in different cell populations within the same sample.
DMSO (Dimethyl sulfoxide) was used to reconstitute Compound 23. Final concentration of DMSO was 0.05% in media for in vitro assays. […]
Stained cells were run on an Attune NxT Acoustic Focusing Flow Cytometer (Thermo Fisher, cat. No. A29004), and data was analyzed using FlowJo (v10.6.1) and GraphPad Prism (v8.00) software. Single lymphocytes were gated for CD8^+ cells (CD45^+/CD8^+) cells, and population frequencies were calculated for each population. The data is quantified by the percent positive. […] As protein becomes phosphorylated the fluorescence increases resulting in a larger fraction of the cells entering that gate. Each population was evaluated for % positive pY759-PLCγ2, pY397-HS1 levels, pY319/Syk (Y352)-ZAP70 levels.

phosphorylated HS1 [2] = assay: Phosphorylated HS1 in circulating CD8+ T cells of patients, Phase 1 trial (flow cytometry); type: in vivo, human
Description: Pharmacodynamic analysis of the proximal biomarker, phosphorylated HS1 is assessed in circulating CD8^+ T cells from patients that are being administered doses ranging from 5 to 50 mg of Compound 23 once daily and is being used to assess target engagement of Compound 23 as part of the dose/exposure-response profile. Whole blood is collected longitudinally and added into two types of TruCulture (Myriad) tubes. One tube contains media, and the second tube contains anti-CD3 and anti-CD28, which are subsequently crosslinked to induce cellular stimulation for pharmacodynamic analysis. Phosphorylated HS1 is assessed by flow cytometry pre and post dose on Cycle 1 Day 1 (C1D1) and Cycle 2 Day 1 (C2D1) to characterize single/multiple dose PD profiles.
% Maximal phosphorylated signal and % AUC are two commonly used parameters to assess the pharmacodynamic effects of drugs.
% Maximal phosphorylated signal refers to the maximum amount of a specific protein that becomes phosphorylated (i.e., modified by the addition of a phosphate group) in response to a drug or other stimulus. This parameter is often used to measure the activation of signaling pathways that are important for various cellular processes, including cell growth and differentiation, immune response, and metabolism.
% AUC, on the other hand, refers to the area under the curve (AUC) over time, expressed as a percentage of the maximum possible AUC. In summary, both % maximal phosphorylated signal and % AUC are useful parameters to assess the pharmacodynamic effects of drugs. % maximal phosphorylated signal is a measure of the activation of signaling pathways, while % AUC reflects the duration of the effect on PD signals. Both parameters can be used to evaluate the potency and duration of a drug's pharmacodynamic effects.

[3] = 5 mg once daily, n=1, cycle 1, day 1
[4] = 15 mg once daily, n=12, cycle 1, day 1
[5] = 25 mg once daily, n=7, cycle 1, day 1
[6] = 50 mg once daily, n=2, cycle 1, day 1

SMILES: C[C@H]1CCCN(Cc2cc3c(c(C(F)(F)F)c2)CN(c2cccc([C@]4(c5nncn5C)C[C@@H](C)C4)c2)C3=O)C1 [Compound 23]
- EC50 (phosphorylated HS1 [1]): 0.23 ± 0.15 µM
- % of phosphorylated HS1 expressing CD8+ T cells (maximal) (phosphorylated HS1 [2]; [3]): 35%
- phosphorylated HS1 AUC (phosphorylated HS1 [2]; [3]): 578
- % of phosphorylated HS1 expressing CD8+ T cells (maximal) (phosphorylated HS1 [2]; [4]): 46%
- phosphorylated HS1 AUC (phosphorylated HS1 [2]; [4]): 787
- % of phosphorylated HS1 expressing CD8+ T cells (maximal) (phosphorylated HS1 [2]; [5]): 53%
- phosphorylated HS1 AUC (phosphorylated HS1 [2]; [5]): 876
- % of phosphorylated HS1 expressing CD8+ T cells (maximal) (phosphorylated HS1 [2]; [6]): 52%
- phosphorylated HS1 AUC (phosphorylated HS1 [2]; [6]): 1055
- trend of AUC % pHS1 with PK (phosphorylated HS1 [2]; Pearson correlation with PK parameters (AUC and CMAX), statistically significant slope p=0.02): positive trend
